Results reported in patent US12685490B2 (The Board of Trustees of the Leland Stanford Junior …, priority 2020, dated 2026).
Where two headings read alike, the source gives them in different places. Values belong to the compound of their own block, whether it stands above or below them. Residues, ends and D or L forms follow the SMILES beside them.

Legend:
[1] = tested on: IAPP cytotoxicity in RIN5fm cells; experiment: MTT reduction assay: formation of β-cell damaging IAPP assemblies; format: cell-based, rat
Method: (§1) Briefly, RIN5fm cells were cultured and plated in 96-well plates as described. Solutions of IAPP alone and its mixtures with peptides were aged in ThT assay buffer as described under “ThT binding assays”. At the indicated incubation time points (24 h or 7 days) aliquots were diluted with cell culture medium and added to the cells. Following incubation with the cells for ~20 h (37° C., humified atmosphere containing 5% CO2), cell damage was verified by the MTT reduction assay.

[2] = tested on: autoimmune diabetes in NOD mice; conditions: prediabetic NOD mice; cited from earlier work
Fluos-IAPP = target: T1, Fluos-IAPP (Homo sapiens, UniProt P10997); experiment: Fluorescence spectroscopic titrations; format: binding; conditions: for Kd: pH 7.4, mean (SD) of 3 binding curves, read-out: app. Kd
T1 construct: made in house; host or cells: chemical synthesis
T1 sequence (P10997 34-70 limits assumed): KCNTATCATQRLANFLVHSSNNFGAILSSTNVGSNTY
Method: Fluorescence spectroscopic titration studies were performed with a JASCO FP-6500 fluorescence spectrophotometer using a previously described experimental protocol. Briefly, excitation was at 492 nm and emission spectra were recorded between 500 and 600 nm. […] For all experiments, freshly made stocks of peptides and their fluorescently labeled analogs in HFIP were used. Measurements were performed in 10 mM sodium phosphate buffer (pH 7.4) containing 1% HFIP within 2-5 min following solution preparation at room temperature. Of note, under these conditions freshly made Fluos-IAPP (5 nM) solutions consist mostly of monomers. App. Kds were calculated using 1/1 binding models as previously described and are means (±SD) of three binding curves.

IAPP [3] = target: T2, IAPP (Homo sapiens, UniProt P10997); experiment: Thioflavin T (ThT) binding assay of IAPP fibrillogenesis; format: biochemical; conditions: for effect on IAPP amyloid self-assembly (fibrillogenesis): IAPP/peptide 1/1
T2 construct: made in house; host or cells: chemical synthesis (Fmoc solid-phase, Rink resin)
T2 sequence (P10997 34-70 limits assumed): T1 sequence (P10997 34-70 limits assumed)
Method: Of note, an incubation of LL-37 alone was also included. At the indicated time points aliquots were mixed with the ThT solution consisting of 20 μM ThT in 0.05 M glycine/NaOH (pH 8.5) and binding was determined by measuring fluorescence emission at 486 nm upon excitation at 450 nm using a Multilabel reader VictorX3 (Perkin Elmer Life Sciences). […] An aliquot of a solution consisting mostly of IAPP fibrils (fIAPP) based on ThT binding and TEM (FIGS. 18-19) (7 days aged IAPP (16.5 μM) made as above) was added to the incubations resulting in a final seed (fIAPP) concentration of 1.65 μM. Incubations of (unseeded) IAPP alone (16.5 μM) and of 10% fIAPP alone were included as controls. ThT binding was determined at the indicated time points as above. […] Solutions containing (unseeded) IAPP alone (16.5 μM), IAPP seeded with fIAPP (10%), and IAPP seeded with LL-37-treated fIAPP (10%) were made in ThT assay buffer and kinetics of fibrillogenesis were determined by the ThT binding assay as described above.

IAPP [4] = target: T2, IAPP; experiment: Far-UV CD spectroscopy of IAPP conformation and misfolding; conditions: 1/1, 5 μM each, pH 7.4
Method: Far-UV CD studies were performed using a Jasco 715 spectropolarimeter. Spectra were recorded at room temperature between 195 and 250 nm, at 0.1 nm intervals, and with a response time of 1 second. Each spectrum is an average of 3 spectra. All CD studies were performed in aqueous 10 mM sodium phosphate buffer (pH 7.4) containing 1% HFIP (CD assay buffer) at room temperature; this assay system has been earlier developed and found to be suitable for following kinetics of IAPP (5 μM) misfolding into β-sheets and amyloid fibrils alone or in the presence of inhibitors. Briefly, peptide stocks in HFIP were freshly made (4° C.), diluted with assay buffer (room temperature) at the indicated concentrations within the cuvette, and following gentle mixing spectra were measured immediately or at the indicated incubation time points. […] The CD spectrum of IAPP at the incubation time point of 24 h (endpoint) was measured after gentle mixing to re-dissolve precipitated aggregates. The CD spectrum of the buffer was always subtracted from the CD spectra of the peptide solutions.

RIN5fm cells = format: cell-based, rat
Method: as §1

IAPP [5] = target: T2, IAPP; experiment: Cross-linking, NuPAGE and Western blot; conditions: IAPP 30 μM, 1/1, pH 7.4
Method: Cross-linking studies were preformed using a previously developed assay system. […] Solutions were cross-linked using 25% aqueous glutaraldehyde (Sigma-Aldrich) and 10% aqueous trichloroacetic acid (TCA) was used to precipitate cross-linked peptides. Pellets were dissolved in reducing NuPAGE sample buffer, boiled for 5 min, and subjected to NuPAGE electrophoresis in 4-12% Bis-Tris gels with MES running buffer (Invitrogen). The same volume of each solution (same IAPP amount) was loaded in all lanes. Peptides were blotted using a XCell II Blot Module blotting system (Invitrogen).

[6] = target: T3, IAPP monomers and fibrils (Homo sapiens, UniProt P10997); experiment: Dot blot analysis; format: binding; conditions: FAM-LL-37 200 nM, IAPP 40 μg spotted
T3 construct: made in house; host or cells: chemical synthesis (Fmoc solid-phase, Rink resin)
T3 sequence (P10997 34-70 limits assumed): T1 sequence (P10997 34-70 limits assumed)
Method: IAPP monomers or IAPP fibrils (fIAPP) containing solutions (different amounts up to 40 μg) were spotted onto a nitrocellulose membrane. These solutions were prepared by incubating an IAPP solution (1 mg/ml) in ThT assay buffer for 0 h (“monomers”) or 24 h (“fibrils”); the presence of fibrils was confirmed by ThT binding and TEM (not shown). The membrane was washed with TBSn (20 mM Tris/HCl, 150 mM NaCl and 0.05% Tween-20), blocked with 5% milk in TBSn overnight at 10° C., and washed again with TBSn. […] Following washings with incubation buffer and TBSn, bound FAM-LL-37 was visualized with a LAS-4000mini instrument (Fujifilm). Of note, glucagon fibrils were spotted as well to control for the specificity of the observed strong binding of FAM-LL-37 to fIAPP (not shown). Glucagon fibrils were made by incubating glucagon in 10 mM HCl (2 μg/μl) (10 days) followed by neutralization with 10 mM NaOH; ThT binding and TEM confirmed fibril formation (not shown). The ThT buffer alone was also spotted to control for NSB. In addition, to control for the interference of fibril autofluorescence, a membrane containing spotted fIAPP which had been incubated in buffer alone w/o FAM-LL-37 was included in each assay; in general, fIAPP autofluorescence contributed up to 25% of the total amount of fluorescence observed in fIAPP bound to FAM-LL-37.

[7] = aged IAPP/peptide mixtures 1/1, RIN5fm cells

Kd (Fluos-IAPP; Fluos-IAPP 5 nM): 2540 nM
weaker binding to Fluos-IAPP (Fluos-IAPP; app. Kd comparison): ~ 30 fold
effect on IAPP amyloid self-assembly (fibrillogenesis) (IAPP [3]; IAPP 16.5 μM): unable to interfere
Compound: CC[C@H](C)[C@H](NC(=O)[C@H](CCCCN)NC(=O)[C@H](CCC(=O)O)NC(=O)[C@H](CCCCN)NC(=O)[C@H](CO)NC(=O)[C@H](CCCCN)NC(=O)[C@H](CCCNC(=N)N)NC(=O)[C@H](Cc1ccccc1)NC(=O)[C@H](Cc1ccccc1)NC(=O)[C@H](CC(=O)O)NC(=O)CNC(=O)[C@H](CC(C)C)NC(=O)[C@@H](N)CC(C)C)C(=O)NCC(=O)O [LL-37(1-14)] (H-LLGDFFRKSKEKIG-OH; N-terminus assumed)
effect on formation of cytotoxic IAPP assemblies (cell-damaging effects) [1, 7]: unable to interfere

Kd (Fluos-IAPP; Fluos-IAPP 5 nM): 31.9 nM
effect on IAPP amyloid self-assembly (fibrillogenesis) (IAPP [3]; IAPP 16.5 μM): unable to interfere
Compound: CC[C@H](C)[C@H](NC(=O)[C@H](CCCNC(=N)N)NC(=O)[C@H](CCC(N)=O)NC(=O)[C@@H](NC(=O)[C@@H](NC(=O)[C@H](CCCNC(=N)N)NC(=O)[C@H](CCCCN)NC(=O)[C@H](Cc1ccccc1)NC(=O)[C@H](CCC(=O)O)NC(=O)[C@@H](N)CCCCN)[C@@H](C)CC)C(C)C)C(=O)N[C@@H](CCCCN)C(=O)N[C@@H](CC(=O)O)C(=O)N[C@@H](Cc1ccccc1)C(=O)N[C@@H](CC(C)C)C(=O)N[C@@H](CCCNC(=N)N)C(=O)N[C@@H](CC(N)=O)C(=O)N[C@@H](CC(C)C)C(=O)N[C@H](C(=O)N1CCC[C@H]1C(=O)N[C@@H](CCCNC(=N)N)C(=O)N[C@H](C(=O)N[C@@H](CCC(=O)O)C(=O)N[C@@H](CO)C(=O)O)[C@@H](C)O)C(C)C [LL-37(15-37)] (H-KEFKRIVQRIKDFLRNLVPRTES-OH; N-terminus assumed)
effect on formation of cytotoxic IAPP assemblies (cell-damaging effects) [1, 7]: unable to interfere

More lines, now with the values behind:

Compound: CC[C@H](C)[C@H](NC(=O)[C@H](CCCCN)NC(=O)[C@H](CO)NC(=O)[C@H](Cc1ccccc1)NC(=O)[C@H](CCC(=O)O)NC(=O)[C@H](Cc1ccccc1)NC(=O)[C@H](CCCNC(=N)N)NC(=O)[C@H](CC(C)C)NC(=O)[C@H](CCCCN)NC(=O)[C@H](CC(C)C)NC(=O)CN)C(=O)N[C@@H](CCCCN)C(=O)NCC(=O)N[C@@H](CCC(=O)O)C(=O)N[C@@H](Cc1ccccc1)C(=O)N[C@@H](CC(C)C)C(=O)N[C@@H](CCCCN)C(=O)N[C@H](C(=O)N1CCC[C@H]1C(=O)N[C@@H](CCC(=O)O)C(=O)N[C@H](C(=O)N[C@@H](CCCNC(=N)N)C(=O)N[C@@H](Cc1ccccc1)C(=O)N[C@@H](CCCNC(=N)N)C(=O)N[C@@H](CC(=O)O)C(=O)N[C@H](C(=O)N[C@@H](CCCCN)C(=O)N[C@@H](CC(C)C)C(=O)N[C@@H](CCCCN)C(=O)N[C@@H](CC(=O)O)C(=O)N[C@@H](CC(N)=O)C(=O)N[C@@H](CCCNC(=N)N)C(=O)N[C@H](C(=O)N[C@@H](CO)C(=O)N[C@H](C(=O)N[C@@H](CCC(N)=O)C(=O)N[C@@H](CCCNC(=N)N)C(=O)O)C(C)C)[C@@H](C)CC)[C@@H](C)CC)C(C)C)[C@@H](C)O [scrLL-37, reference compound] (H-GLKLRFEFSKIKGEFLKTPEVRFRDIKLKDNRISVQR-OH)
effect on IAPP cytotoxicity ([1]; up to 10-fold molar excess of peptide, 7 days aged, RIN5fm cells): unable to inhibit

Compound: CRAMP
effect on autoimmune diabetes [2]: dampening the incidence of autoimmune diabetes

Compound: CC[C@H](C)[C@H](NC(=O)[C@H](CCCCN)NC(=O)[C@H](CCC(=O)O)NC(=O)[C@H](CCCCN)NC(=O)[C@H](CO)NC(=O)[C@H](CCCCN)NC(=O)[C@H](CCCNC(=N)N)NC(=O)[C@H](Cc1ccccc1)NC(=O)[C@H](Cc1ccccc1)NC(=O)[C@H](CC(=O)O)NC(=O)CNC(=O)[C@H](CC(C)C)NC(=O)[C@@H](N)CC(C)C)C(=O)NCC(=O)N[C@@H](CCCCN)C(=O)N[C@@H](CCC(=O)O)C(=O)N[C@@H](Cc1ccccc1)C(=O)N[C@@H](CCCCN)C(=O)N[C@@H](CCCNC(=N)N)C(=O)N[C@H](C(=O)N[C@H](C(=O)N[C@@H](CCC(N)=O)C(=O)N[C@@H](CCCNC(=N)N)C(=O)N[C@H](C(=O)N[C@@H](CCCCN)C(=O)N[C@@H](CC(=O)O)C(=O)N[C@@H](Cc1ccccc1)C(=O)N[C@@H](CC(C)C)C(=O)N[C@@H](CCCNC(=N)N)C(=O)N[C@@H](CC(N)=O)C(=O)N[C@@H](CC(C)C)C(=O)N[C@H](C(=O)N1CCC[C@H]1C(=O)N[C@@H](CCCNC(=N)N)C(=O)N[C@H](C(=O)N[C@@H](CCC(=O)O)C(=O)N[C@@H](CO)C(=O)O)[C@@H](C)O)C(C)C)[C@@H](C)CC)C(C)C)[C@@H](C)CC [LL-37]
effect on IAPP conformation / misfolding (IAPP [4]): strong time-dependent increase of random coil contents and no precipitation occurred
increase of Fluos-IAPP fluorescence emission (Fluos-IAPP; Fluos-IAPP 5 nM, 100-fold molar excess of LL-37): 322%
Kd (Fluos-IAPP; Fluos-IAPP 5 nM): 88.1 nM
cytotoxicity of peptide alone (RIN5fm cells): not cytotoxic
effect on IAPP amyloid self-assembly (fibrillogenesis) (IAPP [3]; IAPP 16.5 μM): effectively suppressed IAPP amyloid self-assembly
effect on seeding of IAPP fibrillogenesis by fIAPP (10%) (IAPP [3]; IAPP 16.5 μM, LL-37 1/1, 10% fIAPP seeds): fully suppressed
seeding ability of fIAPP after treatment with peptide (IAPP [3]; fIAPP incubated with LL-37 (10-fold) for 24 h, used as 10% seeds): converts them into seeding incompetent assemblies
hetero-assemblies with IAPP by cross-linking (IAPP [5]): formation of IAPP-LL-37 hetero-tetramers
effect on formation of cytotoxic IAPP assemblies (cell-damaging effects) [1]: effectively suppressed formation of cytotoxic IAPP assemblies
IC50 ([1]; rat): 17 nM

Compound: FAM-LL-37: N-amino-terminal fluorescein labeled LL-37 with a 6-aminohexanoic acid spacer between FAM and the N-terminus
binding to IAPP monomers and fibrils [6]: bound both IAPP fibrils and monomers
